The values that follow come from US20230257366A1, “SULFUR-CONTAINING ISOINDOLINE DERIVATIVE, AND PREPARATION METHOD THEREFOR AND MEDICAL USE THEREOF” (JIANGSU HENGRUI PHARMACEUTICALS CO., LTD., priority 2020, published 2023).

The test system of one data set is NCI-H929 xenograft tumor. Kind of data set: Pharmacodynamic test: NCI-H929 xenograft tumor in CB-17 SCID mice. The data set is classed as in vivo. As to the method: This experiment was performed to evaluate the inhibition effect of the compound of Example 6 and the control example CC-92480 on the growth of human multiple myeloma cell NCI-H929 xenograft tumor in CB-17 SCID mice.
Compound of Example 6; control example CC-92480 (see compound 2 of WO2019014100A1, synthesized according to the method disclosed therein)
Solutions of the compound of Example 6 and the control example CC-92480 were prepared with 5% DMSO+20% PEG400+70% (10% TPGS)+5% (1% HPMC K100LV).
Thirty CB-17 SCID female mice, purchased from Beijing Vital River Laboratory Animal Technology Co., Ltd. (certificate No. 20170011006049, SCXK (Shanghai) 2017-0011), weighing about 19 g at the time of purchase, were bred at 5 mice/cage (in 12/12 hour light/dark cycle, at a constant temperature of 23±1° C. and humidity of 50%-60%) and had free access to food and water.
After adaptive feeding, the CB-17 SCID mice were grouped as follows:
NCI-H929 cells in a logarithmic growth phase were inoculated subcutaneously into the right flank of 30 female CB-17 SCID mice at 5×10^6 cells/mouse/100 μL (containing 50 μL of Matrigel). After 10 days, when the tumor volume of the tumor-bearing mice reached about 200 mm^3, the mice were randomly divided into 3 groups according to the tumor volume and body weight: vehicle control group, CC-92480-1 mpk, compound of Example 6-1 mpk, with 7 mice in each group. The day of grouping was set as Day 0 (D0), and intragastric administration was performed once a day for 11 days (Table 2). For the tumor-bearing mice, the tumor volume was measured with a vernier caliper and the body weight was measured with a balance twice a week, and the data were recorded.
All data were plotted and statistically analyzed using Excel and GraphPad Prism 5 software.
The tumor volume (V) was calculated as follows: V=½×a×b^2, where a and b represent length and width, respectively.
The relative tumor proliferation rate T/C (%)=(T−T0)/(C−C0)×100(%), where T and C are the tumor volume of animals at the end of the experiment in the treatment group and control group, respectively; T0 and C0 are the tumor volume of animals at the beginning of the experiment in the treatment group and control group, respectively.
Tumor growth inhibition TGI (%)=1−T/C (%), and when TGI (%) exceeds 100%, no specific value will be shown, and it is expressed only by >100%.
Tumor regression (%)=[(T0−T)/T0]×100(%).

Data set [1] is described as follows: Pharmacokinetic evaluation in mice after intragastric administration (LC/MS/MS). It counts as in vivo. As to conditions: female, mouse, in vivo, po, 2 mg/kg. The protocol:
The drug concentration in the plasma of the test animals (mice) at different time points after intragastric administration of the compound of Example 6 and the control example CC-92480 was determined by an LC/MS/MS method. The pharmacokinetic behavior of the compound of the present disclosure in mice was studied and its pharmacokinetic profile was evaluated.
(§1) Compound of Example 6 and control example CC-92480.
Eighteen mice, female, purchased from Beijing Vital River Laboratory Animal Technology Co., Ltd., with animal production license number of SCXK (Shanghai) 2017-0005.
A certain amount of compound of Example 6 was weighed, dissolved by adding 5% by volume of DMSO and 5% Tween 80 (Shanghai Titan Scientific Co., Ltd.), and then prepared into a 0.1 mg/mL clear solution by adding 90% normal saline.
A certain amount of the control example CC-92480 was weighed, dissolved by adding 5% by volume of DMSO and 5% Tween 80 (Shanghai Titan Scientific Co., Ltd.), and then prepared into a 0.1 mg/mL clear solution by adding 90% normal saline.
Nine mice were intragastrically administered with the compound of Example 6 at a dose of 2 mg/kg and at a volume of 0.2 mL/10 g.
Nine mice were intragastrically administered with the control example CC-92480 at a dose of 2 mg/kg and at a volume of 0.2 mL/10 g.
Mice were intragastrically administered with the compound of Example 6 and the control example CC-92480, and 0.2 mL of blood was collected before the administration and 0.25 h, 0.5 h, 1.0 h, 2.0 h, 4.0 h, 6.0 h, 8.0 h, 11.0 h and 24.0 h after the administration (3 animals at each time point), placed in EDTA-K2 anticoagulation tubes, and centrifuged at 10,000 rpm for 1 min(4° C.). Plasma was separated within 1 h, and stored at −20° C. for testing. The process from blood collection to centrifugation was performed under an ice bath.
The content of the test compounds at different concentrations in mouse plasma after the administration was determined: 25 μL of mouse plasma at each time point after the administration was mixed with 50 μL (100 ng/mL) of internal standard solution camptothecin (National Institutes for Drug Control) and 175 μL of acetonitrile. The mixture was vortexed for 5 min and centrifuged for 10 min (3700 rpm/min), and 1 μL of the supernatant of the plasma sample was taken for LC/MS/MS assay (API4000 triple quadrupole tandem mass spectrometer, Applied Biosystems, USA; Shimadzu, LC-30AD ultra high performance liquid chromatography system, Shimadzu, Japan).

Data set [2] in a line: Plasma stability in monkey plasma (LC-MS/MS). It counts as in vitro ADME. As to conditions: monkey, plasma. The protocol: The stability of the compound of Example 6 and the control example CC-92480 after incubation in cryopreserved monkey plasma at 37° C. for 0 min, 15 min, 30 min, 60 min, 120 min, 180 min and 240 min was determined quantitatively by LC-MS/MS.
as §1
Monkey plasma was purchased from Shanghai Medicilon Inc.
A certain amount of the compound of Example 6 was weighed and prepared with DMSO to obtain a 30 mM stock solution. A certain volume of the stock solution was diluted into a solution I at a concentration of 1600 μM with DMSO; and a certain volume of the solution I at 1600 μM was diluted with 50% methanol to obtain a working solution II at a concentration of 16 μM. A 30 mM stock solution, a 1600 μM solution I′, and a 16 μM working solution II′ of CC-92480 were prepared as described above.
5 μL of the working solutions at 16 μM of the compound of Example 6 and the control example CC-92480 were each added to 75 μL of plasma to make the final concentration of the compounds of 1 μM. The samples were incubated under a 37° C. water bath for 0 min, 15 min, 30 min, 60 min, 90 min, 120 min, and 180 min. […] The supernatant was analyzed by LC-MS with a sample injection volume of 2 μL.

As a reminder, the AUC is concentration integrated over time. As a reminder, the CL/F is the apparent clearance, not corrected for the fraction that reaches the circulation. For orientation: Cmax means the peak of the concentration-time curve. Usually MRT stands for a mean duration of stay, worked out from the concentration-time curve. Usually Vd/F stands for the volume of distribution divided by bioavailability. The half-life is how long it takes for the measured level to halve. On to `N#Cc1ccc(N2CCN(Cc3ccc(COc4cccc5c4CN([C@H]4CCC(=O)NC4=O)C5=O)cc3)CC2)c(F)c1` [CC-92480, reference compound], for which the “Mean tumor volume D0” value with NCI-H929 xenograft tumor (1 mg/kg qd, baseline at day of grouping (D0), n=7) came to 157.2 mm^3. The “Number of remaining animals/group” value in the data set with NCI-H929 xenograft tumor (1 mg/kg qd/11d po) is 7/7. For the same compound, the “% tumor regression D11” value in the data set on NCI-H929 xenograft tumor (1 mg/kg qd/11d po (i.g.), D11) is recorded as 34%. Further, the “Mean tumor volume D11” value in the data set on NCI-H929 xenograft tumor (1 mg/kg qd/11d po (i.g.), D11, n=7) amounted to 103.6 mm^3. In data set [1], this compound showed an AUC of 1940 ng·h/mL, a CL/F of 17.2 mL/min/kg, a Cmax of 692 ng/mL and a mean residence time (MRT) of 2.3 h. In data set [1], the Vd/F stood at 1.96 L/kg and the half-life is 1.3 h. Besides, the half-life at 1 µM in data set [2] came to 3.32 h.
